Columns and labels:
rats [1] = test: Maximal electroshock (MES) model, rats; details: Rattus norvegicus, po, read-out: RATS MES 50
[2] = Neurotoxicity in rats, positional sense test and gait stance test; details: rat, in vivo, po
Description: (§1) Neurotoxicity of the claimed agents was also assessed in mice (i.p. administration) by the rotorod ataxia test and/or in rats (p.o. administration) by positional sense test and gait stance test. […] The term quantitating the neurotoxicity is the medial neurological toxic dose (TD50), was determined in the above tests.

in vivo = details: mouse, in vivo, ip
Description: as §1

mice = test: Maximal electroshock (MES) model, mice; details: Mus musculus, ip, read-out: MICE MES ED50
hypoxia-lesioned rats = test: Water maze working memory test, Experiment 3B; format: in vivo, rat; details: rat, in vivo
Text: The apparatus used consists of a circular water tank 160 cm in diameter filled with water to a depth of 38 cm. The water was made cloudy by the addition of milk powder. A clear Plexiglass 15 cm platform, supported by a movable stand rest on the bottom of the tank was submerged to a depth of 2 cm from the water surface. Normally a swimming rat cannot perceive the location of the platform but it may recall it from a previous experience and training, unless it suffers from some memory impairment. The time taken to locate the platform is measured in seconds and referred to as the latency. During the experiment all orientational cues such as ceiling lights etc. remained unchanged. Longer latencies are observed with rats with some impairment to their memory.
Each rat was given two trails a day for four days, entering the pool from the same point of entry each day. The position of the platform was changed daily to one of four predetermined positions. Each rat was tested twice each day over the four days, referred to as runs 1 and 2 on sessions I-IV. Initially the rat was placed on the platform for 60 seconds. It was then removed and placed at the point of entry and allowed a maximum of 120 seconds to locate the platform (run 1). The second run for that day followed 60 seconds later (run 2). In the second run the rat is expected to find the platform much sooner, having benefitted from its earlier experience. […] The average latency of run 1 in four sessions on four different days was then related to the corresponding parameter of run 2. The smaller the ratio of […], the better the short range learning score.
Table 8. […] The data are the latencies in seconds±SEM that it took a given group to locate a submerged and invisible platform the location of which was shifted from one session to the other. The time interval between sessions was one day, and that between successive runs was 60 seconds. (n=7-8 rats per group)

hypoxic rat [3] = test: Amphetamine-induced stereotype behavior in hypoxic rat, Experiment 2A; format: in vivo; details: hypoxic group, with respect to hypoxia and amphetamine control
Description: (§2) Wistar male rats, 15-19 month-old, were exposed to a single hypoxic episode as described above. […] Rats pretreated for 29 days with daily doses of the test drugs (0.5 mg/kg), received a sub-cutaneous (s.c.) injection of D-amphetamine sulfate at a dose of 0.5 mg/kg. D-amphetamine is known to cause an enhancement of the effects of CNS dopamine by a mechanism involving dopamine release, and blockage of its uptake and its metabolism by MAO. The behavioral manifestation of amphetamine action is a stereotypic pattern of lateral head movements. Counts of lateral head movements were taken over two successive intervals of 1 min each, 45-60 min after the injection of amphetamine and then averaged.

rats [4] = test: Closed head injury in rats, Experiment 4C (dose range); format: in vivo, rat; details: doses 0.03 mg/kg to 3 mg/kg
Description: (§3) After the second evaluation of motor function, the animals were sacrificed and the brains were removed. A piece of tissue was weighed to yield a wet weight (WW), then dried in an oven for 24 hours at 95 C. and re-weighed to yield a dry weight(DW). Percentage water content in the tissue was calculated as (WW-DW)×100/WW.

rats [5] = test: Closed head injury in rats, Experiment 4E (therapeutic window); format: in vivo, rat; details: 1 mg/kg
Description: as §3

hypoxic rat [6] = test: α-MpT-induced hypokinesia in hypoxic rat, Experiment 1A; format: in vivo; details: hypoxia group, ten hour observation
Description: Wistar male rats, 15-19 month-old, were exposed to a single hypoxic episode which is assumed to decrease the level of dopamine in the brain. […] The drugs were administered by gavage, using a special syringe equipped with rounded tip that could be directed into the stomach. The dose was contained in 0.3-0.5 mL of distilled water. The rats were pretreated for 70-80 days with daily doses of the test drugs and received intra-peritoneal (i.p.) α-MpT (α-methyl-p-tyrosine) at a dose of 100 mg/kg in 0.3-0.5 mL saline. Controls received saline. α-MpT is assumed to inhibit the formation of L-Dopa from tyrosine and, consequently the formation of dopamine itself. Lack of central dopamine is expressed as hypokinesia. Following the injection of α-MpT, motor activity was recorded for the duration of 10 hours. Locomotion scores were taken in seven fully-computerized cages (26×25 cm) having a grid of infra-red beams at 4 cm-intervals.
Crossing of a beam initiated an electric signal which was fed into a computer. The number of crossings over a given period provided a measure of locomotion.
The records gave two data categories: (a) “small movements” originating in stationary activities such as grooming and scratching and (b) “big movements” originating in ambulation and recorded as the simultaneous crossing of more than two beams. “Total movements” include both categories.
Counts of motor activity in the presence of α-MpT were related as percent with respect to counts in its absence in the corresponding control group (unlesioned or hypoxia-lesioned). Motor activity counts of drug-treated rats were related to the hypoxia saline-treated as 100%. All behavioral tests were performed 90-120 min. after administration of the last dose of the test compound.

MAO-A = target: T1, MAO-A (Rattus norvegicus, UniProt P21396); details: chronic or acute treatment
T1 sequence (P21396 1-526): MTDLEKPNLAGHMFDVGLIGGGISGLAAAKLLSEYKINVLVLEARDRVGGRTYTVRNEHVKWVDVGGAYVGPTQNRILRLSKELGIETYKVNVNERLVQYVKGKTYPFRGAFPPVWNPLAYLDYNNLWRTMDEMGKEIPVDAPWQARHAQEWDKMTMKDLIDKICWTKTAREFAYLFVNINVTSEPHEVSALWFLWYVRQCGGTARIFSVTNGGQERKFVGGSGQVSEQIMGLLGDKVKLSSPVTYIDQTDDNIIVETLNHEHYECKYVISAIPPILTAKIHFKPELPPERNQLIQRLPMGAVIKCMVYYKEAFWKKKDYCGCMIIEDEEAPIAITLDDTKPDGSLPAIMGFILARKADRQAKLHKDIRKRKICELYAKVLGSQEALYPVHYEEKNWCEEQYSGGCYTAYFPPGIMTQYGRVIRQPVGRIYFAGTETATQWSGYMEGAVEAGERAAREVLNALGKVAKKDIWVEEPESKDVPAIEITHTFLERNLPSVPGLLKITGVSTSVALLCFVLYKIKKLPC
Text: (§4) The brains of some rats from each experimental group in Exp. 1 (chronic treatment of 80 days) and Exp. 2 (acute treatment of 14 days) were ex vivo analyzed for MAO-A and MAO-B activity.

MAO-B = target: T2, MAO-B (Rattus norvegicus, UniProt P19643); details: RAI: only chronic treatment; deprenyl: acute or chronic treatment
T2 sequence (P19643 1-520): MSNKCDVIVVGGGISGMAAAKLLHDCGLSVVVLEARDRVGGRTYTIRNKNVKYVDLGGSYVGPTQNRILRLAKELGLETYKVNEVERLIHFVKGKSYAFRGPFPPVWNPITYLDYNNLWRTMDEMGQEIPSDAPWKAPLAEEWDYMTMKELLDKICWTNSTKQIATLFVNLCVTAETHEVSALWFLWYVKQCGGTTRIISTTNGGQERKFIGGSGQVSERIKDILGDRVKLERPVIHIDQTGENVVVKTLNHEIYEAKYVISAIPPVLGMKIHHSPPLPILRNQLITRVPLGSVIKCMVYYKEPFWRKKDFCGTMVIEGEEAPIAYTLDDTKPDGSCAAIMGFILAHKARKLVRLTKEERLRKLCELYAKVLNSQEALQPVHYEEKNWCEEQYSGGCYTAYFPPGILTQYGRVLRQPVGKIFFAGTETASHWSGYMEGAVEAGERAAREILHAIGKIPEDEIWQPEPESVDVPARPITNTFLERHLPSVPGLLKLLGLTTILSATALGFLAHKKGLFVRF
Text: as §4

rats [7] = test: Closed head injury in rats, Experiment 4D (times of administration); format: in vivo, rat; details: RAI 1 mg/kg; times of administration: 0, 4, 8, 12 h
Description: as §3

hypoxic rat [8] = test: Amphetamine-induced stereotype behavior in hypoxic rat, Experiment 2B; format: in vivo
Description: as §2
The procedure of the second Experiment 2B was similar to the one used in Experiment 2A with the following changes:
1) Animals: 12 month-old rats.
The drugs were given by i.p. injection.
3) Duration of the treatment: 14 days.

hypoxic rat [9] = test: Passive avoidance test in hypoxic rat, Experiment 3A; format: in vivo; details: hypoxic rats
Description: Wistar male rats, 15-19 month-old, were exposed to a single hypoxic episode as described above. […] The passive avoidance test was performed on day 13 after initiation the drug treatment. The apparatus consisted of a lit chamber that can be separated from a dark chamber by a sliding door. At training, a rat is placed in the lit chamber for 30 seconds, then the door is opened. The rat moves to the dark chamber after a short delay—the latency, that is recorded. Upon entry into the dark chamber, the door is shut closed and a 0.3-mA footshock is delivered for 3 seconds by a Grass S-88 stimulator. Retention of the experience is determined after 48 hours by repeating the test and recording the latency to an arbitrary maximum of 300 seconds. Longer latencies are ascribed to retention of memory and improved cognition.

| Structure (SMILES) | ED50 (rats [1]) [mg/kg] | TD50 [2] [mg/kg] | melting point [°C] | TD50 (in vivo) [mg/kg] | ED50 (mice) [mg/kg] | water maze performance versus hypoxia group, in words (hypoxia-lesioned rats) | potentiation of stereotypic behavior induced by amphetamine, in words (hypoxic rat [3]) | dose at which a maximal response was observed (rats [4]) [mg/kg] | effectiveness when given after induction of head trauma, in words (rats [5]) | effect on hypokinetic syndrome, big movements, in words (hypoxic rat [6]) | effect on MAO-A activity, in words (MAO-A) | effect on MAO-B activity, in words (MAO-B) | % water in the brain (rats [7]) [%] | potentiation of stereotypic behavior (lateral head movements), in words (hypoxic rat [8]) | passive avoidance performance, in words (hypoxic rat [9]) |
| --- | --- | --- | --- | --- | --- | --- | --- | --- | --- | --- | --- | --- | --- | --- | --- |
| CC(=O)NC1CCc2ccc(F)cc21 (racemic) [Compound 22, (rac)-6-Fluoro-N-acetyl-1-aminoindan] | < 50 | > 50 | 139 to 141 | > 100 | < 100 | – | – | – | – | – | – | – | – | – | – |
| N[C@@H]1CCc2ccccc21 [R-AI, (R)-1-aminoindan] | – | – | – | – | – | tended towards superior performance | significant potentiation | 0.3 | still effective even if given 3 hours after the induction of head trauma | corrected the hypokinetic syndrome | does not have an effect on MAO-A activity | can partially inhibit | 81.5 ± 0.5 | significant potentiation | improved their performance to control level |

— patent US6528685B2 (Teva Pharmaceutical Industries, Ltd., priority 1994, dated 2003)
